Measured values as given in patent publication US12338203B2 (TAISHO PHARMACEUTICAL CO., LTD., priority 2019, dated 2025).

Each compound was assayed against T1, human LPAR1 (Homo sapiens, UniProt Q92633) (assay: Test Example 1: antagonism against response of LPA-induced increase in intracellular Ca2+ concentration in RH7777 cells stably expressing human LPAR1). Conditions: RH7777 cells stably expressing human LPAR1; Fluo-4 fluorescence, FDSS6000; read-out: IC50 value (concentration producing 50% antagonism against response of LPA-induced increase in intracellular Ca2+ concentration) (converted).
T1 construct: expressed in transfected cells
Assay type: cell-based
Method in brief: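 RH7777 cells stably transfected with human LPAR1 were preincubated with test compound 30 min at 37 °C in HBSS/20 mM HEPES/probenecid/0.05% BSA buffer, pH 7.4, then LPA-stimulated.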

T1 sequence (Q92633 whole entry): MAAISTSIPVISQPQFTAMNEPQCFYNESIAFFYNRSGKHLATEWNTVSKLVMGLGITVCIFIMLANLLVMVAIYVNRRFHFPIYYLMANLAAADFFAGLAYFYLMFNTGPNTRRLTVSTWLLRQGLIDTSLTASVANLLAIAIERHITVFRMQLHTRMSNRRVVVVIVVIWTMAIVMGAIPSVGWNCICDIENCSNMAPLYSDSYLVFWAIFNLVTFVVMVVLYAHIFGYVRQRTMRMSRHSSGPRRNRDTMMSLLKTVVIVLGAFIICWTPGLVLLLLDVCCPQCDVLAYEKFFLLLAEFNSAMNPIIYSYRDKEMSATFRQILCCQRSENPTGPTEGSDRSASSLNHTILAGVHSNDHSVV

| Compound | IC50 [nM] |
| --- | --- |
| CCOc1c(C(C)=O)ccc([C@@H](C)N(CCO[C@H](C)c2ccccc2)C(=O)NC2(C(=O)O)CC(OCC)C2)c1C (stereo partly drawn) [Example 4-157] | 3.71 |
| CCOc1c(C(C)=O)ccc([C@@H](C)N(CCO[C@H](C)c2ccccc2)C(=O)NC2(C(=O)O)CC(OCC)C2)c1C (stereo partly drawn) [Example 4-158] | 4.39 |
| CCOc1c(C(C)=O)ccc([C@@H](C)N(CCO[C@H](C)c2ccccc2)C(=O)NC2(C(=O)O)CCOCC2)c1C [Example 4-159] | 6.22 |
| CCOc1cc([C@@H](C)N(CCOC(C)(C)c2ccccc2)C(=O)NC2(C(=O)O)CC(F)(F)C2)cc(OCC)c1C1CC1 [Example 4-160] | 10.4 |
| CCOc1cc([C@@H](C)N(CC(=O)NCc2ccccc2)C(=O)NC2(C(=O)O)CC(F)(F)C2)cc(OCC)c1C [Example 4-163] | 384 |
| COc1cc([C@@H](C)N(CCOCc2ccccc2)C(=O)NC2(C(=O)O)CC(F)(F)C2)cc(OC)c1C [Example 4-164] | 3.26 |
| CCOC1CC(NC(=O)N(CCOCc2ccccc2)[C@H](C)c2cc(OC)c(C)c(OC)c2)(C(=O)O)C1 (stereo partly drawn) [Example 4-165] | 4.85 |
| CCOc1c(C2CC2)ccc([C@@H](C)N(CCO[C@@H](C)c2ccccc2)C(=O)NC2(C(=O)O)CCC2)c1C [Example 4-166] | 2.02 |
| CCOc1c(C2CC2)ccc([C@@H](C)N(CCOC(C)c2ccccc2)C(=O)NC2(C(=O)O)CC(F)(F)C2)c1C (stereo partly drawn) [Example 4-167] | 2.5 |
| CCOc1c(C)ccc([C@@H](C)N(CCOC(C)c2ccccc2)C(=O)NC2(C(=O)O)CC(F)(F)C2)c1C (stereo partly drawn) [Example 4-168] | 6.29 |
| CCOc1c(C2CC2)ccc([C@@H](C)N(CCO[C@H](C)c2ccccc2)C(=O)NC2(C(=O)O)CCC2)c1C [Example 4-171] | 3.38 |
| CCOc1c(C2CC2)ccc([C@@H](C)N(CCO[C@H](C)c2ccccc2)C(=O)NC2(C(=O)O)CC(F)(F)C2)c1C [Example 4-172] | 2.43 |
| CCOc1cc([C@@H](C)N(CCO[C@@H](C)c2ccccc2Cl)C(=O)NC2(C(=O)O)CC(F)(F)C2)c(Cl)c(OCC)c1C(C)=O [Example 4-175] | 3.47 |
| CCOc1cc([C@@H](C)N(CCO[C@@H](C)c2cccc(Cl)c2)C(=O)NC2(C(=O)O)CCC2)c(Cl)c(OCC)c1C(C)=O [Example 4-176] | 15.3 |
| CCOc1cc([C@@H](C)N(CCO[C@@H](C)c2cccc(Cl)c2)C(=O)NC2(C(=O)O)CC(F)(F)C2)c(Cl)c(OCC)c1C(C)=O [Example 4-177] | 4.02 |
| CCOc1c(C2CC2)ccc([C@@H](C)N(CCOC(C)c2ccccc2Cl)C(=O)NC2(C(=O)O)CCC2)c1C (stereo partly drawn) [Example 4-178] | 24 |
| CCOc1c(C2CC2)ccc([C@@H](C)N(CCO[C@H](C)c2cccc(Cl)c2)C(=O)NC2(C(=O)O)CCC2)c1C [Example 4-180] | 6.22 |
| CCOc1c(C2CC2)ccc([C@@H](C)N(CCO[C@H](C)c2cccc(Cl)c2)C(=O)NC2(C(=O)O)CC(F)(F)C2)c1C [Example 4-181] | 3.27 |
| CCOc1cc(OCC)cc(C(C)N(CCCCc2ccccc2)C(=O)NC2(C(=O)O)CC(F)(F)C2)c1 (stereo not drawn) [Example 5-1, 1-({[1-(3,5-Diethoxyphenyl)Ethyl](4-Phenylbutyl) Carbamoyl}Amino)-3,3-Difluorocyclobutane-1-Carboxylic Acid] | 99.6 |
| O=C(NC1(C(=O)O)CCCC1)N(CCCCc1ccccc1)Cc1cccc(Cl)c1 [Example 5-2] | 4520 |

| Compound | IC50 [nM] |
| --- | --- |
| CCOc1cccc(C(C)N(CCCCc2ccccc2)C(=O)NC2(C(=O)O)CC(F)(F)C2)c1 (stereo not drawn) [Example 5-3] | 45.5 |
| CC(=O)c1ccc(C(C)N(CCCCc2ccccc2)C(=O)NC2(C(=O)O)CC(F)(F)C2)cc1 (stereo not drawn) [Example 5-4] | 128 |
| CC(c1ccc(C#N)cc1)N(CCCCc1ccccc1)C(=O)NC1(C(=O)O)CC(F)(F)C1 (stereo not drawn) [Example 5-5] | 39.7 |
| CC(c1ccc(F)cc1)N(CCCCc1ccccc1)C(=O)NC1(C(=O)O)CC(F)(F)C1 (stereo not drawn) [Example 5-6] | 164 |
| Cc1ccc(C(C)N(CCCCc2ccccc2)C(=O)NC2(C(=O)O)CC(F)(F)C2)cc1 (stereo not drawn) [Example 5-7] | 132 |
| CCOc1cc(C(C)N(CCCCc2ccccc2)C(=O)NC2(C(=O)O)CC(F)(F)C2)ccc1C(C)=O (stereo not drawn) [Example 5-8] | 3.62 |
| CCOc1cc(C(C)N(CCCCc2ccccc2)C(=O)NC2(C(=O)O)CC(F)(F)C2)ccc1C(C)O (stereo not drawn) [Example 5-9] | 2.82 |
| CCOc1cc(OCC)cc(C(C)N(CCCCc2ccccc2)C(=O)NC2(C(=O)O)CCCC2)c1 (stereo not drawn) [Example 5-10] | 35.4 |
| CCOc1cc(OCC)cc(C(C)N(CCCCc2ccccc2)C(=O)NC2(C(=O)O)Cc3ccccc3C2)c1 (stereo not drawn) [Example 5-11] | 79.7 |
| CCOc1cc(OCC)cc([C@@H](C)N(CCCCc2ccccc2)C(=O)NC2(C(=O)O)Cc3ccccc3C2)c1 [Example 5-12] | 45.4 |
| COc1cc(OC)cc(C(C)N(CCCCc2ccccc2)C(=O)NC2(C(=O)O)CC(F)(F)C2)c1 (stereo not drawn) [Example 5-13] | 4.32 |
| COCc1cc(OC)cc(C(C)N(CCCCc2ccccc2)C(=O)NC2(C(=O)O)CC(F)(F)C2)c1 (stereo not drawn) [Example 5-14] | 19.1 |
| CCCc1cc(OCC)cc(C(C)N(CCCCc2ccccc2)C(=O)NC2(C(=O)O)CC(F)(F)C2)c1 (stereo not drawn) [Example 5-15] | 6.1 |
| CCCOc1cc(OC)cc(C(C)N(CCCCc2ccccc2)C(=O)NC2(C(=O)O)CC(F)(F)C2)c1 (stereo not drawn) [Example 5-16] | 8.97 |
| CCCOc1cc(OCC)cc(C(C)N(CCCCc2ccccc2)C(=O)NC2(C(=O)O)CC(F)(F)C2)c1 (stereo not drawn) [Example 5-17] | 8.86 |
| CCCOc1cc(OCCC)cc(C(C)N(CCCCc2ccccc2)C(=O)NC2(C(=O)O)CC(F)(F)C2)c1 (stereo not drawn) [Example 5-18] | 11 |
| CCOc1cc(C#N)cc(C(C)N(CCCCc2ccccc2)C(=O)NC2(C(=O)O)CC(F)(F)C2)c1 (stereo not drawn) [Example 5-20] | 3.92 |
| CC(c1cc(Cl)cc(Cl)c1)N(CCCCc1ccccc1)C(=O)NC1(C(=O)O)CC(F)(F)C1 (stereo not drawn) [Example 5-21] | 17.1 |
| COc1cc(Br)cc(C(C)N(CCCCc2ccccc2)C(=O)NC2(C(=O)O)CC(F)(F)C2)c1 (stereo not drawn) [Example 5-22] | 7.13 |
| Cc1cc(C)cc(CN(CCCCc2ccccc2)C(=O)NC2(C(=O)O)CCCC2)c1 [Example 5-23] | 3930 |

| Compound | IC50 [nM] |
| --- | --- |
| CC(c1cc(C(F)(F)F)cc(C(F)(F)F)c1)N(CCCCc1ccccc1)C(=O)NC1(C(=O)O)CC(F)(F)C1 (stereo not drawn) [Example 5-24] | 75.8 |
| CCOc1cc(C(=O)NC)cc(C(C)N(CCCCc2ccccc2)C(=O)NC2(C(=O)O)CC(F)(F)C2)c1 (stereo not drawn) [Example 5-25] | 43.2 |
| CCOc1cc([C@@H](C)N(CCO[C@@H](C)c2ccccc2)C(=O)N[C@]2(C(=O)O)C[C@@H](OCC)C2)c(Cl)c(OCC)c1C(C)=O [Example 5-26, Trans-1-[([(1R)-1-(4-Acetyl-2-Chloro-3,5-Diethoxyphenyl)Ethyl]{2-[(1S)-1-Phenylethoxy]Ethyl}Carbamoyl)Amino]-3-Ethoxycyclobutane-1-Carboxylic Acid] | 1.46 |
| CCOc1cc([C@@H](C)N(CCO[C@@H](C)c2ccccc2)C(=O)N[C@]2(C(=O)O)C[C@H](OCC)C2)c(Cl)c(OCC)c1C(C)=O [Example 5-27] | 3.84 |
| CCOc1cc([C@@H](C)N(CCO[C@@H](C)c2ccccc2)C(=O)N[C@]2(C(=O)O)C[C@@H](OC)C2)c(Cl)c(OCC)c1C(C)=O [Example 5-28] | 2.31 |
| CCOc1cc([C@@H](C)N(CCO[C@@H](C)c2ccccc2)C(=O)N[C@]2(C(=O)O)C[C@H](OC)C2)c(Cl)c(OCC)c1C(C)=O [Example 5-29] | 4.63 |
| CCOc1cc([C@@H](C)N(CCO[C@@H](C)c2ccccc2)C(=O)NC2(C(=O)O)CCC2)c(Cl)c(OCC)c1C(C)=O [Example 5-30] | 2.15 |
| CCOc1cc([C@@H](C)N(CCO[C@@H](C)c2ccccc2)C(=O)NC2(C(=O)O)CC2)c(Cl)c(OCC)c1C(C)=O [Example 5-31, 1-[([(1R)-1-(4-acetyl-2-chloro-3,5-diethoxyphenyl)ethyl]{2-[(1S)-1-phenylethoxy]ethyl}carbamoyl)amino]cyclopropane-1-carboxylic acid] | 2.59 |
| CCOc1cc([C@@H](C)N(CCO[C@@H](C)c2ccccc2)C(=O)NC2(C(=O)O)CC(F)(F)C2)c(Cl)c(OCC)c1C(C)=O [Example 5-32] | 2.04 |
| CCOc1cc([C@@H](C)N(CCO[C@@H](C)c2ccccc2)C(=O)NC2(C(=O)O)CCOCC2)c(Cl)c(OCC)c1C(C)=O [Example 5-33] | 2.77 |
| CCOc1cc([C@@H](C)N(CCO[C@H](C)c2ccccc2)C(=O)NC2(C(=O)O)CCOCC2)c(Cl)c(OCC)c1C(C)=O [Example 5-34] | 4.18 |
| CCOc1cc([C@@H](C)N(CCO[C@H](C)c2ccccc2)C(=O)N[C@]2(C(=O)O)C[C@@H](OC)C2)c(Cl)c(OCC)c1C(C)=O [Example 5-35] | 3.97 |
| CCOc1cc([C@@H](C)N(CCOCc2ccccc2)C(=O)N[C@]2(C(=O)O)C[C@@H](OC)C2)c(Cl)c(OCC)c1C(C)=O [Example 5-36] | 1.62 |
| CCOc1cc([C@@H](C)N(CCOCc2ccccc2)C(=O)NC2CC(C(=O)O)C2)c(Cl)c(OCC)c1C(C)=O (stereo partly drawn) [Example 5-37] | 292 |
| CCOc1cc([C@@H](C)N(CCOCc2ccccc2)C(=O)NC2(C(=O)O)CC(F)(F)C2)c(Cl)c(OCC)c1C(C)=O [Example 5-38] | 0.468 |
| CCOc1cc([C@@H](C)N(CCOCc2ccccc2)C(=O)NC2(C(=O)O)CCOCC2)c(Cl)c(OCC)c1C(C)=O [Example 5-39] | 0.516 |
| CCOc1cc([C@@H](C)N(CCC(F)(F)Cc2ccccc2)C(=O)NC2(C(=O)O)CC(F)(F)C2)c(Cl)c(OCC)c1C(C)=O [Example 5-40] | 4.63 |
| CCOc1cc([C@@H](C)N(CCC(F)(F)Cc2ccccc2)C(=O)NC2(C(=O)O)CC(OC)C2)c(Cl)c(OCC)c1C(C)=O (stereo partly drawn) [Example 5-41] | 10.3 |
| CCOc1cc([C@@H](C)N(CCC(F)(F)Cc2ccccc2)C(=O)NC2(C(=O)O)CC(OC)C2)c(Cl)c(OCC)c1C(C)=O (stereo partly drawn) [Example 5-42] | 7.45 |
| CCOc1cc([C@@H](C)N(CCC(F)(F)Cc2ccccc2)C(=O)NC2(C(=O)O)CCOCC2)c(Cl)c(OCC)c1C(C)=O [Example 5-43] | 22.1 |
